The values below come from patent US4220587A, “Amino acid derivatives of 6-(2-amino-2-arylacetamido)penicillanic acids” (Mitsubishi Chemical Industries, Limited, priority 1975, dated 1980).

≈ marks a conversion by molar mass, not a printed value. Like-named read-outs stand apart in the source and are kept apart here.

Holding throughout (type): cell-based
In experiment [1] the test system is Proteus mirabilis (IFO 3849). The experiment can be described thus: MIC, agar dilution, Proteus mirabilis. The settings on record: read-out: Minimum Inhibitory Concentration (MIC). The procedure:
(§1) The compounds of this invention were tested for antibacterial activity according to the following procedure. Nutrient broth and nutrient agar were prepared according to the conventional procedure. […] was used as a vehicle. The stock solution was prepared at 100 μg/ml of the test material in the vehicle. Two-fold dilutions were made with the vehicle and then the diluted stock solution was added to a petri dish and solidified by chilling. Test organisms were grown in the nutrient broth for 20 hours at 37° C. The hardened surface was inoculated with a loopful of the test organism solution containing 1×10^6 cells per milliliter and incubated for 20 hours at 37° C. At the end of this period, growth of the organism was observed. […] The following Table 1 summarizes the activity of representative compounds as active antibacterial agents, and compares them with the prior art compounds and the reference drug Sulbenicillin.
For orientation: In agar dilution, organisms are placed on agar that contains the substance at set levels.

Experiment [2] deals with Proteus vulgaris (IFO 3045). The experiment can be described thus: MIC, agar dilution, Proteus vulgaris. The settings on record: read-out: Minimum Inhibitory Concentration (MIC). The procedure: as §1
The test system of experiment [3] is Proteus morgani (IFO 3848). The experiment can be described thus: MIC, agar dilution, Proteus morgani. The settings on record: Morganella morganii, read-out: Minimum Inhibitory Concentration (MIC). The procedure: as §1
A further experiment relates to Staph. aureus (FDA 209P). Briefly: MIC, agar dilution, Staph. aureus. The settings on record: Staphylococcus aureus, FDA209P, read-out: Minimum Inhibitory Concentration (MIC). On the procedure: as §1
Another experiment has as its system E. coli (NIHJ). The experiment can be described thus: MIC, agar dilution, E. coli. To be noted: Escherichia coli, read-out: Minimum Inhibitory Concentration (MIC). The procedure:
as §1

The subject of experiment [4] is Pseudomonas aeruginosa (ATCC 15692). Briefly: MIC, agar dilution, Pseudomonas aeruginosa ATCC 15692. To be noted: read-out: Minimum Inhibitory Concentration (MIC). The procedure:
as §1

The subject of experiment [5] is Pseudomonas aeruginosa M-11. Briefly: MIC, agar dilution, Pseudomonas aeruginosa M-11. The settings on record: 20 h, read-out: Minimum Inhibitory Concentration (MIC). On the procedure:
as §1
^*1 streptomycin resistant strain derived from Pseudomonas aeruginosa

Experiment [6] has as its system Pseudomonas aeruginosa (ATCC 15691). Briefly: MIC, agar dilution, Pseudomonas aeruginosa ATCC 15691. To be noted: ATCC15691, P. aeruginosa ATCC 15691, nutrient agar, 20 hours at 37° C., read-out: Minimum Inhibitory Concentration (MIC). The procedure: as §1
The subject of experiment [7] is Klebsiella pneumoniae (ATCC 25955). Briefly: MIC, agar dilution, Klebsiella pneumoniae. The settings on record: ATCC25955; Klebsiella pneumoniae ATCC 25955; nutrient agar, 20 hours at 37° C.; read-out: Minimum Inhibitory Concentration (MIC). The procedure:
as §1

Experiment [8] deals with Pseudomonas aeruginosa M-16. Briefly: MIC, agar dilution, Pseudomonas aeruginosa M-16. The settings on record: M16, 20 h, read-out: Minimum Inhibitory Concentration (MIC). On the procedure: as §1
^*3 streptomycin, chloramphenicol and mercury resistant strain derive

The subject of experiment [9] is Pseudomonas aeruginosa M-12. The experiment can be described thus: MIC, agar dilution, Pseudomonas aeruginosa M-12. The settings on record: ATCC15692, 20 h, read-out: Minimum Inhibitory Concentration (MIC). The procedure: as §1
^*2 chloramphenicol resistant strain derived from Pseudomonas

Where [10] appears, read: Proteus mirabilis, IFO3849, 20 h.
Setting [11] is: Proteus vulgaris, IFO3045, 20 h.

Turning to `CC1(C)S[C@@H]2[C@H](NC(=O)[C@H](NC(=O)[C@H]3CCCN3)c3ccc(O)cc3)C(=O)N2[C@H]1C(=O)O` [Compound 3, 6-[D-2-(D-prolylamino)-2-(4-hydroxyphenyl)acetamido]penicillanic acid monohydrate], the MIC in experiment [1] (setting [10]) came to 2.2 µg/mL; in experiment [2] (setting [11]), 6.2 µg/mL; in experiment [3] (IFO3848, 20 h), 3.1 µg/mL; in the experiment on Staph. aureus (FDA 209P) (20 h) it was 0.9 µg/mL; with E. coli (NIHJ) (20 h), 6.2 µg/mL; in [4] (ATCC15692, 20 h), 6.2 µg/mL.

With `CC1(C)S[C@@H]2[C@H](NC(=O)[C@H](NC(=O)[C@@H]3CCCN3)c3ccc(O)cc3)C(=O)N2[C@H]1C(=O)O` [Compound 4], the MIC in experiment [1] (setting [10]) is 9 µg/mL (≈ 19.5 µM); in [2] (setting [11]), 12.5 µg/mL (≈ 27 µM); in experiment [3] (IFO3848, 20 h) it was 9 µg/mL (≈ 19.5 µM); in the experiment with Staph. aureus (FDA 209P) (20 h) it was 1.25 µg/mL (≈ 2.7 µM); with E. coli (NIHJ) (20 h), 25 µg/mL (≈ 54.1 µM); in experiment [4] (ATCC15692, P. aeruginosa ATCC 15692, nutrient agar, 20 hours at 37° C.), 50 µg/mL (≈ 108 µM).

For the compound `CC1(C)S[C@@H]2[C@H](NC(=O)C(c3ccccc3)S(=O)(=O)O)C(=O)N2[C@H]1C(=O)O` (stereo partly shown) [sulpenicillin, reference compound], the MIC in [5] was 25 µg/mL (≈ 60.3 µM); in experiment [6], 50 µg/mL (≈ 121 µM); in experiment [1] (IFO3849, Proteus mirabilis IFO 3849, nutrient agar, 20 hours at 37° C.), under 3.1 µg/mL; in [2] (IFO3045, Proteus vulgaris IFO 3045, nutrient agar, 20 hours at 37° C.), under 3.1 µg/mL; in experiment [7], over 100 µg/mL; in experiment [8] it was 25 µg/mL (≈ 60.3 µM). For the same compound, the MIC was under 3.1 µg/mL in [3] (IFO3848, Proteus morgani IFO 3848, nutrient agar, 20 hours at 37° C.); 3.25 µg/mL (≈ 7.84 µM) with Staph. aureus (FDA 209P) (Staph. aureus FDA 209P, nutrient agar, 20 hours at 37° C.); 25 µg/mL (≈ 60.3 µM) in experiment [9]; 1.25 µg/mL (≈ 3.02 µM) with E. coli (NIHJ) (E. coli NIHJ, nutrient agar, 20 hours at 37° C.).
